# Source: patent US20120251482A1, “USE FOR IMPROVING 5-HT FUNCTION AND ENOS EXPRESSION OF KMUPS AMINE SALTS” (KAOHSIUNG MEDICAL UNIVERSITY, priority 2011, published 2012)
# Structures can show the parent of a compound that is named as a salt.
# Assays:
# [1] = tested on: monocrotaline (MCT)-induced pulmonary artery hypertension rats; experiment: Mean pulmonary arterial pressure in MCT-induced PAH rats; type: in vivo, rat; settings: MCT-treated rats, daily treatment for 21 days, n = 5
# [2] = tested on: AKT; experiment: 5-HT-induced phosphorylation of AKT in PASMCs; type: cell-based, rat
# Description: (§1) Wistar rats were anesthetized with an overdose of sodium pentobarbital (60 mg/kg) and the skin was sterilized with 75% alcohol. The chest was opened and the heart and lung were removed. The organs were rinsed several times in PBS. The pulmonary arterys (PAs) were segregated in a sterile manner. The outer sphere was peeled and the microtubule was snipped visually, and endothecia were shaved lightly 2-3 times in order to remove endothelial cells. The tunica media was prepared into scraps (1 mm^3) in DMEM (Dulbecco's modified Eagle's medium). PASMCs were cultured in DMEM containing 10% fetal bovine serum (5% CO2 at 37° C.). The culture medium was changed every 3 days and cells were subcultured until confluence. Primary cultures of 2-4 passages were used in the experiments. Cells were examined by immunofluorescence staining of α-actin to confirm the purity of PASMCs.
# (§2) PASMCs were stimulated with 5-HT or not, as indicated. Cells were treated with KMUP-1 for 24 h before 5-HT stimulation. […]
# (§3) The expression of RhoA/ROCK and phosphorylation of ERK1/2 and AKT kinase in PASMCs were assessed by incubating the PASMCs with 5-HT (10 μM) for 15 min (peak time for RhoA/ROCK, ERK1/2 and AKT phosphorylation) and 5-HTT for 10 min (peak time for 5-HTT) after KMUP-1 (1-100 μM) was added to the culture of PASMCs for 24 h.
# [3] = tested on: eNOS; experiment: Expression of eNOS in HPAEC (Western blotting); type: cell-based, human
# Description: (§4) HPAEC purchased from ATCC were maintained in humidified incubator containing 5% CO2 at 37° C. HPAEC were cultured in F-12 supplemented with 10% fetal bovine serum. The culture medium was changed every 3 days and cells were subcultured until confluence. HPAEC were harvested with a solution of trypsin-EDTA (GIBCO BRL, NY, USA) while in a logarithmic phase of growth. HPAEC were used between passages 4-8.
# PASMCs were stimulated with 5-HT or not, as indicated. Cells were treated with KMUP-1 for 24 h before 5-HT stimulation. Whole lysates were collected and resolved by SDS-PAGE as previously described (Liu et al., 2004). Primary antibodies were anti-β-actin at: 1:10,000 dilution and anti-RhoA, anti-ROCK, antiphospho-ERK1/2, anti-ERK1/2, anti-phospho-AKT, anti-AKT, anti-5HTT, anti-5-HT2B and anti-eNOS at 1:1000. All blots were incubated with antibodies at 4° C. overnight. After being washed, the appropriate secondary antibodies were added at a dilution of 1:1000 for 1 h at room temperature. After extensive washing, blots were developed with a Super Signal enhanced chemiluminescence kit (Biorad, CA, USA) and visualized on Kodak AR film.
# To measure the expression of eNOS and 5-HT2B receptor in HPAEC after incubation with KMUP-1(1-100 μM) for 24 h, whole lysates were collected for Western blotting assay. The relative density was determined using NIH imaging software.
# [4] = tested on: human pulmonary artery endothelial cell (HPAEC); experiment: Nitric oxide production in HPAEC (Griess method); type: cell-based; settings: 5-HT 10 μM for 30 min
# Description: as §4
# Production of NO in HPAEC was determined using the Griess method (Niwano et al., 2003). The three step Greiss test converts nitrate (NO3^−) into nitrite (NO2^−) giving a total NO2^− concentration from a standard calibration curve. HPAEC were incubated with or without KMUP-1 (10 μM) for 24 h and then incubated with 5-HT (10 μmol/L) for 30 min. Media samples from HPAEC were taken and the NO concentration was determined. Six independent experiments were carried out and data are reported as the mean mean±SEM.
# [5] = tested on: ERK1/2; experiment: 5-HT-induced phosphorylation of ERK1/2 in PASMCs; type: cell-based, rat
# Description: as §1, §2, §3
# [6] = tested on: RhoA; experiment: 5-HT-induced RhoA translocation in PASMCs; type: cell-based, rat; settings: 1-100 μM, 24 h; 5-HT 10 μM 15 min
# Description: as §1, with “Cells were examined by immunofluorescence staining of α-actin to confirm the purity of PASMCs.” left out
# Previous reports have shown that the active form of RhoA is translocated from the cytosol to the plasma membrane, where it activates Rho kinase (Gong et al., 1997)). […] To assess membrane trans-location of RhoA, protein in membrane and cytosolic fractions was determined by standard Western blot analysis using mouse monoclonal anti-RhoA antibody (1:1000 dilution, Santa Cruz Biotechnology) and a peroxidase-labeled anti-mouse immunoglobulin (Ig) G antibody (1:1000 dilution, Santa Cruz Biotechnology, CA, USA). The relative density of membrane to cytosolic RhoA was determined using NIH imaging software. […]
# [7] = tested on: PASMCs; experiment: 5-HT-induced PASMCs proliferation, MTT assay; type: cell-based, rat; settings: KMUP-1 1-100 μM; 5-HT 10 μM 24 h
# Description: as §1
# PASMCs were seeded into 96-well plates at a density of 1×10^4 cells/well. […] At the end of this period, MTT (2 g/L) was added to each well, and incubation proceeded at 37° C. for 4 h. Thereafter, the medium was removed and the cells were solubilized in 150 μL DMSO. The optical density (OD) of each well was determined by enzyme-linked ELISA at 540 nm of wavelength.
# [8] = biological target: T1, 5-HT2B receptor (Homo sapiens, UniProt P41595); experiment: Displacement of [3H]-LSD radioligand binding; settings: from Table 1
# T1 construct: full length clones of 5-HT2A, 5-HT2B and 5-HT2C receptor were prepared from CHO-K1 cells; expressed in transfected cells; host or cells: CHO-K1
# T1 sequence (P41595 whole entry): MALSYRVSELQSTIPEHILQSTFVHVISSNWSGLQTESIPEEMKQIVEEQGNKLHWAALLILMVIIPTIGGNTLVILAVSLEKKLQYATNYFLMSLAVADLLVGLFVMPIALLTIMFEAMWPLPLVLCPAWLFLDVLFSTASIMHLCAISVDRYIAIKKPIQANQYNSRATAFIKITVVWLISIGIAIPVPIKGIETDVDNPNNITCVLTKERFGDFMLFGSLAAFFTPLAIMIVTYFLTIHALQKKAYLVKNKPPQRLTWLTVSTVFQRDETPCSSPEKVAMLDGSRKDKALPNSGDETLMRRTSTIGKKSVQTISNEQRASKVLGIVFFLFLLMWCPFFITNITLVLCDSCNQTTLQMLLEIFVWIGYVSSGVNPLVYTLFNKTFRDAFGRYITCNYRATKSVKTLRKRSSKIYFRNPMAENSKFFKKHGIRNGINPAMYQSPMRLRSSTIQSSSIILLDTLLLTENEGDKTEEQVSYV
# Description: As described previously (Bonhaus et al., 1995), full length clones of 5-HT2A, 5-HT2B and 5-HT2C receptor were prepared from CHO-K1 cells. […] IC50 represents the concentration of competing ligand which displaces 50% of the specific binding of the radioligand. Ki values for competition curves were calculated using the Cheng-Prusoff equation (Cheng, 2001).
# [9] = tested on: pulmonary arterial smooth muscle cells (PASMCs); experiment: PASMCs [Ca2+]i measurement (Fura-2/AM); type: cell-based, rat; settings: at 10 μM; 5-HT 10 μM
# Description: as §1
# The measurement of [Ca^2+]i in PASMCs was performed using a spectrofluorophotometer as previously reported (Wang et al., 2004). PASMCs, cultured for 2-4 passages and re-suspended by trypsin, were loaded with Fura-2/AM for the measurement of [Ca^2+]i changes in cells within the cuvette by spectrofluorophotometer (Shimadzu, RF-5301PC, Shimadzu, Japan). KMUP-1 was applied 5 min before application of 5-HT (10 μM).
# [10] = tested on: rat pulmonary artery; experiment: Isometric force of 5-HT-constricted pulmonary artery rings
# Description: Wistar rats were euthanized with an overdose of sodium pentobarbital (60 mg/kg, i.p.) before open-chest surgery. During surgery, a thoracic retractor was used to help isolate the pulmonary artery. The chest was opened to dissect the second branches of the main pulmonary artery, which were cut into 2-3 mm rings, suspended under isometric conditions and connected to a force transducer as previously described (Ugo Basile, Model 7004, Comerio-VA, Italy) (Schach et al., 2007) to measure the constriction caused by 5-HT (10 μM). The pulmonary artery ring preparations were stretched to a basal tension of 1 g and allowed to equilibrate for 60-90 min. After equilibration, pulmonary artery rings were constricted with 5-HT (10 μM) to prime the tissues and check the functionality of the endothelium (at least 80% relaxation in response to acetylcholine 1 μM). Once the contractile response to each agonist reached a stable tension, KMUP-1 (0.1-100 μM) was cumulatively added to the organ bath in the presence of 5-HT (10 μM, pre-incubation time of 15 min).
# The effect of KMUP-1 on NOS and 5-HT was also studied in vessels pre-incubated with the NOS inhibitor L-NAME (100 μM) 20 min before 5-HT administration. The percentage of relaxation was estimated using the following equation: relaxation (%)=(maximal contraction—relaxation level)/(maximal contraction-basal level)×100. Data was obtained from serotonin-induced maximal contractile responses in pulmonary artery.
# [11] = tested on: PASMCs; experiment: 5-HT-induced PASMCs migration, wound assay model; type: cell-based, rat; settings: 10-100 μM; 5-HT 10 μM 24 h
# Description: The wound edge was viewed and photographed under a microscope (Nikon, Tokyo, Japan) before and after culture for 24 h in serum-free DMEM in the presence of 5HT (10 μM). The distance the cells migrated from the wound surface was then manually measured.
# [12] = tested on: 5-HTT; experiment: Pulmonary 5-HTT expression in MCT-treated rats (immunochemistry, Western blotting); type: in vivo, rat
# Description: All experiments were performed in adult male Wistar rats (300 to 350 g) in accordance with institutional guidelines after approval by the ethical review committee. PAH development and pulmonary expression of 5-HTT were examined in rats after single injection of MCT (60 mg/kg i.p.). To assess the potential preventive effect of KMUP-1 on MCT-induced PAH and associated proliferation, we assigned rats at random to 2 groups of 8 animals which received KMUP-1 at 5 mg/kg/day p.o or 1 mg/kg/day i.p. All treatments were given once a day for 3 weeks after a single MCT injection (60 mg/kg i.p.) (Abe et al., 2004). On day 21, rats were anesthetized and pulmonary artery blood pressure (MPAP) was recorded as previously described (Chung et al., 2010). Lung tissues were dissected for Western blotting and immunohistochemistry.
# For 5-HTT immunostaining, the lung slides were dewaxed in 100% xylene, and the sections were then rehydrated by successive immersion first in decreasing ethanol concentrations (100%, 90%, 80%, 50% and 30%) and then in water. Endogenous peroxidase activity was blocked using H2O2 in methanol (0.3% vol/vol) for 10 min. After three PBS washes, sections were pre-incubated in PBS supplemented with 3% (wt/vol) BSA for 30 min, then incubated overnight at 4° C. with goat polyclonal anti-5-HTT antibody (Abcam Biotechnology, Cambridge, UK) diluted to 1:1000 in 1×PBS, 0.02% BSA. […]
# [13] = pre-incubation 1-100 μM for 24 h
smiles,measurement,setting,value
Cn1c(=O)c2c(ncn2CCN2CCN(c3ccccc3Cl)CC2)n(C)c1=O [KMUP-1 HCl],"mean pulmonary arterial pressure (MPAP), Table 2",[1],35.8 ± 3.2
"NCCc1c[nH]c2ccc(O)cc12 [5-HT, 5-hydroxytryptamine]",increase of phosphorylation of AKT,[2]; 5-HT 10 μM for 15 min,2.3 fold
same,expression of eNOS compared to the control group,[3]; 5-HT 10 μM for 30 min,increased
same,release of NO compared to the control group,[4],increased
same,increase of phosphorylation of ERK1/2,[5]; 5-HT 10 μM for 15 min,2.3 fold
"Cn1c(=O)c2c(ncn2CCN2CCN(c3ccccc3Cl)CC2)n(C)c1=O [KMUP-1, 7-[2-[4-(2-chlorophenyl)piperazinyl]ethyl]-1,3-dimethyl-xanthine]",5-HT-induced phosphorylation of AKT,[2]; [13],dose-dependently inhibited
same,5-HT stimulated RhoA translocation,[6],inhibited
same,eNOS expression,[3]; 1-100 μM for 24 h,dose-dependently increased
same,PASMCs proliferation,[7],dose-dependently inhibited
same,affinity order of the sub-receptors,[8],5-HT2A>5-HT2B>5-HT2C
same,ligand specificity of the human 5-HT2B receptor versus 5-HT2A and 5-HT2C receptors,[8],more selective
same,5-HT-induced phosphorylation of ERK1/2,[5]; [13],dose-dependently inhibited
same,inhibition of the sustained [Ca2+]i response to 5-HT,[9],65%
same,contractile response of pulmonary artery to 5-HT (10 μM),[10]; 0.1-100 μM,inhibited
same,maximum response of pulmonary artery to 5-HT in the presence of L-NAME,"[10]; KMUP-1 10-100 μM, L-NAME 100",reduced the maximum response
same,5-HT induced PASMCs migration,[11],inhibited
same,"5-HTT expression in pulmonary artery, immunochemistry","[12]; 21 days after MCT injection, 5 mg/kg p.o. and 1 mg/kg i.p.",significantly decreased
same,"5-HTT protein expression in lung tissue, Western blotting",[12]; MCT-treated rats,significantly reduced
"COC(=O)[C@@H](N)CCCNC(=N)N[N+](=O)[O-] [L-NAME, N^ω-nitro-L-arginine methyl ester, reference compound]",5-HT-induced constriction,[10]; L-NAME alone with 5-HT,enhanced
